From PMC12087874, “Biaryl Phosphates and Phosphonates as Selective Inhibitors of the Transcription Factor STAT4” (Angewandte Chemie (International Ed. in English), 2025)
Several values for one entry are separate records, joined by “and”; a condition that tells them apart may be missing. Equal values may be shown once.

Tests used:
STAT4 [1] = target: T1, STAT4 (Homo sapiens, UniProt Q14765); assay: Competitive fluorescence polarization (FP) assay, STAT4 SH2 domain; format: binding; conditions: for Ki / IC50: FP assay, mean ± SD, n = 3; for Ki: tracer 5-carboxyfluorescein-GpYLPQNID-OH, Ki derived from IC50, read-out: STAT4 K i
T1 sequence (Q14765 1-748): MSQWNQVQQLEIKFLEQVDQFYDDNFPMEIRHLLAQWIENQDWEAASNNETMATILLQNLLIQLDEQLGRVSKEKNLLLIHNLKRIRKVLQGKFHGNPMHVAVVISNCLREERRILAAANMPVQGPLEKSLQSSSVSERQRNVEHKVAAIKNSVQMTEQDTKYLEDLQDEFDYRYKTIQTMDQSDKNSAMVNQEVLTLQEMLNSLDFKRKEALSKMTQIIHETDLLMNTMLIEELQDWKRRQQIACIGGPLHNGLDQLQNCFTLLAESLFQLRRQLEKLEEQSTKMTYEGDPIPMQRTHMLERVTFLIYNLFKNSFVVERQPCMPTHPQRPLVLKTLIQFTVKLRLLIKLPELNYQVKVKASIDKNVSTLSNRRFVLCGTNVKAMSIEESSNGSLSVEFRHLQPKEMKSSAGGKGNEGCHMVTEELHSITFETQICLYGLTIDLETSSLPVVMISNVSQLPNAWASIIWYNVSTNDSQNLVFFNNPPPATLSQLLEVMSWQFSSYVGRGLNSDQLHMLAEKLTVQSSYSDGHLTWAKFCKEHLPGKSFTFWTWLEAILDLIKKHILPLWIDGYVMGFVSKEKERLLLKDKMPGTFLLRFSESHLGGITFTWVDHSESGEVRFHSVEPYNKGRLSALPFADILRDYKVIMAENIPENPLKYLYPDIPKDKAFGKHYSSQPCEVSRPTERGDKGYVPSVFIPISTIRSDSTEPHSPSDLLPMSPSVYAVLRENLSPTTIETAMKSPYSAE
Protocol: Fluorescence polarization assays
Competitive fluorescence polarization assays, which measure the abilities of test compounds (dissolved in DMSO) to displace a fluorescent-labeled peptide from the SH2 domain of a STAT protein, were carried out essentially as described. Proteins were used at the following final concentrations: 23 nM or 28 nM for STAT4; between 56 nM and 91 nM for STAT1; 107 nM or 110 nM for STAT3; between 131 nM and 177 nM for STAT5a; between 62 nM and 85 nM for STAT5b; and 101 nM or 106 nM for STAT6. These concentrations represent the approximate […]
dissociation constant for peptide binding of the respective protein batches used in the assays.
The following peptides were used: 5-carboxyfluorescein-GpYLPQNID-OH for STAT4; 5-carboxyfluorescein-GpYDKPHVL for STAT1; 5-carboxyfluorescein-GpYLPQTV-NH2 for STAT3; 5-carboxyfluorescein-GpYLVLDKW for STAT5a/b, and 5-carboxyfluorescein- […]
Gp[…]-OH for STAT6. All peptides were used at a final concentration of 10 nM. The buffer consisted of 10 mM Tris (pH 8.0), 50 mM NaCl, 1 mM EDTA, 1 mM DTT, 0 .1 % Nonidet P-40 substitute, and 2 % DMSO. After incubation of protein and test compound for 1 h at room temperature, the fluorescent -labeled peptide was added. Samples were transferred to 384 - well microtiter plates and fluorescence polarization was read after an additional 60 min of incubation time. Measurements were performed in triplicate. Percent binding was calculated based on a logarithmic curve fit using OriginPro 8G software. IC 50 values were converted to Ki-values via the published equation[3] using the corresponding Excel spread sheet […]
https://websites.umich.edu/~shaomengwanglab/software/calc_ki/index.html .
Error bars represent standard deviations. Ligand efficiencies (LE) were calculated by the formula LE = -1,37 x log Ki / number of non-hydrogen atoms.[4] […]

STAT4 [2] = target: T1, STAT4; assay: CETSA of STAT4 in lysates from NK-92 cells; format: binding; design: utilizing cellular lysates from the STAT4‐expressing natural killer cell line NK‐92; endogenous in cells; host or cells: NK-92 (DSMZ); conditions: 100 µM; for ΔT agg of STAT4 / T agg of STAT4 (average): CETSA, NK-92 cell lysates; for ΔT agg of STAT4: versus DMSO control; for T agg of STAT4 (average): DMSO control 48.7 ± 0.5 °C, n = 3; for Tagg (STAT4) 3 independent experiments: individual CETSA experiments, in °C (unit assumed)
Protocol: NK-92 cells (DSMZ) were cultured in α-MEM containing 12.5% fetal bovine serum (FBS), 12.5% horse serum, 2 mM L-glutamine, penicillin/streptomycin and 50 U/ml IL -2. […]
NK-92 cell lysates were prepared for CETSA experiments by washing cultured cells once with TBS and resuspending in TBS supplemented with Halt Protease In hibitor Cocktail, EDTA-free (Fisher Scientific) at 3 x 10^6 cells per 100 µl. […]
CETSA experiments were performed essentially using the published protocol. Briefly, NK-92 cell lysates were incubated with test compound or DMSO for 15 min at room temperature (final DMSO concentration 2%). During this time, the treated lysate was divided into 10x 50 µl aliquots in 0.2 ml reaction tubes. Samples were then heated to the designated temperatures in a Veriti Pro Thermocycler (Thermo Fishe r Scientific) for 3 min, followed by 3 min incubation at room temperature, and then placed on ice. The samples were transferred to 1.5 ml tubes before centrifugation at 20,000 g for 20 min at 4 °C, to remove aggregated proteins. The soluble fractions were subsequently analyzed by Western blotting.
The components of cell lysates from treated cells, or heat-treated lysates from CETSA, were separated by SDS-PAGE (10%), transferred to nitrocellulose membrane (Bio-Rad) and detected using monoclonal rabbit primary antibodies (Cell Signaling), α-rabbit-HRP secondary antibody (Dako) and Western Lightning Plus chemiluminescence reagent (Perkin Elmer).
Bands were visualized using an ImageQuant system (GE Healthcare) and quantitated using ImageJ software (NIH). […]
The sitting drop was composed of 0.1 µl protein solution and 0.1 µl reservoir solution. Plates were stored at 19°C in a protein […]
In the first set of experiments, w e tried to crystallize STAT4 as a SUMO -STAT4 fusion protein […]
was cleaved off as described above.
Screening for crystallization conditions for tag-free STAT4 was performed both in the absence or presence of 1 equivalent of 6m or 6h. Since the chosen protein concentration of 3.6 mg/ml appeared to be too low, screening was repeated with a higher concentration of 6.4 mg/ml STAT4 for all conditions (corresponding to 100 µM 6m). Both the SUMO-STAT4 and the tag-free STAT4 preferentially precipitated under conditions containing polyethylene glycol. In one set of experiments, we also screened for conditions in the presence of the high-affinity peptide GY(PO3H2)LPQNID adapted from the IL-12 receptor. However, none of the conditions resulted in the growth of STAT4 crystals (Table S4).

Row | Structure (SMILES) | Ki (STAT4 [1]) | IC50 (STAT4 [1]) | selectivity for STAT4 over other STAT proteins (STAT4 [1]; FP assays) | selectivity for STAT4 over the SH2 domain of STAT5a (STAT4 [1]; FP assays, Ki ratio) | selectivity for STAT4 over the SH2 domain of STAT5b (STAT4 [1]; FP assays, Ki ratio) | selectivity for STAT4 over the SH2 domains of STAT1, STAT3, and STAT6 (STAT4 [1]; FP assays, Ki ratio) | ΔT agg of STAT4 (STAT4 [2]) | T agg of STAT4 (average) (STAT4 [2]) | Tagg (STAT4) 3 independent experiments (STAT4 [2]) | ligand efficiency (STAT4 [1]; LE = -1,37 x log Ki / number of non-hydrogen atoms, STAT4 Ki)
1 | O=P(O)(O)Oc1ccc(-c2ccc3ccccc3c2)cc1 [Compound 6g] | 440 ± 90 nM | 950 ± 190 nM |  |  |  |  |  |  |  | 
2 | O=P(O)(O)Oc1ccc(-c2ccc3ccccc3c2)cc1F [Compound 6m] | 350 ± 10 nM | 760 ± 10 nM | 10–70 fold |  |  |  |  |  |  | 
3 | O=P(O)(O)Oc1ccc(-c2ccccc2)cc1F [Compound 6h] | 560 ± 80 nM | 1200 ± 200 nM |  |  |  |  |  |  |  | 
4 | O=P(O)(O)Oc1ccc(-c2ccccc2)cc1 [Compound 1, para‐biphenyl phosphate] | 1100 ± 100 nM | 2300 ± 200 nM |  | ~20 fold | ~40 fold | 7–8 fold |  |  |  | 
5 | O=P(O)(O)C(F)(F)c1ccc(-c2ccc3ccccc3c2)cc1F [Compound 8a] | 4000 ± 500 nM | 8500 ± 1000 nM |  |  |  |  | 1.1 °C | 49.8 ± 0.1 °C and 49.8 °C | 49.9 and 49.7 and 49.8 | 
6 | Cc1cc(-c2ccc(C(F)(F)P(=O)(O)O)c(F)c2)cs1 [Compound 8k] | 1700 ± 200 nM | 3700 ± 400 nM |  |  |  |  | 1.3 °C | 50.0 ± 0.5 °C and 50.0 °C | 50.5 and 49.6 and 49.8 | 0.39 kcal/mol
